Measured values from patent US20250034167A1, “HETEROCYCLIC COMPOUNDS AND METHODS OF USE” (AMGEN INC., priority 2021, published 2025).

biological target: His-tagged KRAS G12D protein (Homo sapiens, UniProt P01116, G12D); assay: biochemical; conditions: not given
Sequence (P01116 1-188 isoform P01116-2 G12D): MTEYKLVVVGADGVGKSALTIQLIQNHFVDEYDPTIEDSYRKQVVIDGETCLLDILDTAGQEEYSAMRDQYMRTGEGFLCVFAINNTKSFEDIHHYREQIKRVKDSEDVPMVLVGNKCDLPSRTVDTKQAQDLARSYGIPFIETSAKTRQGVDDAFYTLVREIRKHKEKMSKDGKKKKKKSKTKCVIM

| IC50 [µM] | Structure (SMILES) |
| --- | --- |
| 0.005 | CCc1c(F)ccc2cc(O)cc(-c3ncc4c(N5CC(C)CC(O)C5)nc(OC[C@@]56CCCN5C[C@H](F)C6)nc4c3F)c12 (mixture of isomers) [Example 96, rac-(3R,5S)-1-(7-(8-Ethyl-7-fluoro-3-hydroxynaphthalen-1-yl)-8-fluoro-2-(((2R,7aS)-2-fluorotetrahydro-1H-pyrrolizin-7a(5H)-yl)methoxy)pyrido[4,3-d]pyrimidin-4-yl)-5-methylpiperidin-3-ol] |

test system: Phosphorylation of ERK1/2 in AsPC-1 cells; assay: Phospho-ERK1/2 MSD Assay; format: cell-based; conditions: Homo sapiens, ASPC1, 2 h, read-out: 2 h p-ERK (AsPC-1 cells), IC50, AsPC-1 cells, 2 h compound treatment
Procedure: Sixteen hours prior to compound treatment, AsPC-1 cells were seeded in 96-well cell culture plates at a density of 25,000 cells/well and incubated at 37° C., 5% CO2. A compound dose-response titration was diluted in growth media, added to appropriate wells of a cell culture plate, and then incubated at 37° C., 5% CO2 for 2 hours.

| Structure (SMILES) | IC50 [µM] |
| --- | --- |
| CCc1c(F)ccc2cc(O)cc(-c3ncc4c(N5CC(C)CC(O)C5)nc(OC[C@@]56CCCN5C[C@H](F)C6)nc4c3F)c12 (mixture of isomers) [Example 96, rac-(3R,5S)-1-(7-(8-Ethyl-7-fluoro-3-hydroxynaphthalen-1-yl)-8-fluoro-2-(((2R,7aS)-2-fluorotetrahydro-1H-pyrrolizin-7a(5H)-yl)methoxy)pyrido[4,3-d]pyrimidin-4-yl)-5-methylpiperidin-3-ol] | 0.119 |
| CCc1c(F)ccc2cc(O)cc(-c3ncc4c(N5CC6CC5C(C)(O)C6)nc(OC[C@@]56CCCN5C[C@H](F)C6)nc4c3F)c12 (stereo partly drawn) [Example 71, 2-(7-(8-Ethyl-7-fluoro-3-hydroxynaphthalen-1-yl)-8-fluoro-2-(((2R,7aS)-2-fluorotetrahydro-1H-pyrrolizin-7a(5H)-yl)methoxy)pyrido[4,3-d]pyrimidin-4-yl)-6-methyl-2-azabicyclo[2.2.1]heptan-6-ol] | 1.17 |
| CCc1c(F)ccc2cc(O)cc(-c3ncc4c(N5CCC[C@@H](NC(=S)NCCOC)C5)nc(OC[C@@]56CCCN5C[C@H](F)C6)nc4c3F)c12 [Example 74, 1-((R)-1-(7-(8-ethyl-7-fluoro-3-hydroxynaphthalen-1-yl)-8-fluoro-2-(((2R,7aS)-2-fluorotetrahydro-1H-pyrrolizin-7a(5H)-yl)methoxy)pyrido[4,3-d]pyrimidin-4-yl)piperidin-3-yl)-3-(2-methoxyethyl)thiourea] | 2.71 |
| CCc1c(F)ccc2cc(O)cc(-c3ncc4c(N5CCC[C@@](C)(NC(C)=O)C5)nc(OC[C@@]56CCCN5C[C@H](F)C6)nc4c3F)c12 [Example 76, N-((R)-1-(7-(8-Ethyl-7-fluoro-3-hydroxynaphthalen-1-yl)-8-fluoro-2-(((2R,7aS)-2-fluorotetrahydro-1H-pyrrolizin-7a(5H)-yl)methoxy)pyrido[4,3-d]pyrimidin-4-yl)-3-methylpiperidin-3-yl)acetamide] | 1.1 |
| CCc1c(F)ccc2cc(O)cc(-c3ncc4c(N5CCC[C@@](C)(NC(=O)OC)C5)nc(OC[C@@]56CCCN5C[C@H](F)C6)nc4c3F)c12 [Example 77, Methyl ((R)-1-(7-(8-ethyl-7-fluoro-3-hydroxynaphthalen-1-yl)-8-fluoro-2-(((2R,7aS)-2-fluorotetrahydro-1H-pyrrolizin-7a(5H)-yl)methoxy)pyrido[4,3-d]pyrimidin-4-yl)-3-methylpiperidin-3-yl)carbamate] | 1.53 |
| CCc1c(F)ccc2cc(O)cc(-c3ncc4c(N5CCC[C@@H](NC(=O)OC)C5)nc(OC[C@@]56CCCN5C[C@H](F)C6)nc4c3F)c12 [Example 78, Methyl ((R)-1-(7-(8-ethyl-7-fluoro-3-hydroxynaphthalen-1-yl)-8-fluoro-2-(((2R,7aS)-2-fluorotetrahydro-1H-pyrrolizin-7a(5H)-yl)methoxy)pyrido[4,3-d]pyrimidin-4-yl)piperidin-3-yl)carbamate] | 0.244 |
| CCc1c(F)ccc2cc(O)cc(-c3ncc4c(N5CC(n6ccnc6)C5)nc(OC[C@@]56CCCN5C[C@H](F)C6)nc4c3F)c12 [Example 91, 4-(4-(3-(1H-Imidazol-1-yl)azetidin-1-yl)-8-fluoro-2-(((2R,7aS)-2-fluorotetrahydro-1H-pyrrolizin-7a(5H)-yl)methoxy)pyrido[4,3-d]pyrimidin-7-yl)-5-ethyl-6-fluoronaphthalen-2-ol] | 5.13 |
| CCc1c(F)ccc2cc(O)cc(-c3ncc4c(N5CCCC(=O)CC5)nc(OC[C@@]56CCCN5C[C@H](F)C6)nc4c3F)c12 [Example 95, 1-(7-(8-Ethyl-7-fluoro-3-hydroxynaphthalen-1-yl)-8-fluoro-2-(((2R,7aS)-2-fluorotetrahydro-1H-pyrrolizin-7a(5H)-yl)methoxy)pyrido[4,3-d]pyrimidin-4-yl)azepan-4-one] | 0.074 |
| CCc1c(F)ccc2cc(O)cc(-c3ncc4c(N5CCCCC(=O)C5)nc(OC[C@@]56CCCN5C[C@H](F)C6)nc4c3F)c12 [Example 127, 1-(7-(8-Ethyl-7-fluoro-3-hydroxynaphthalen-1-yl)-8-fluoro-2-(((2R,7aS)-2-fluorotetrahydro-1H-pyrrolizin-7a(5H)-yl)methoxy)pyrido[4,3-d]pyrimidin-4-yl)azepan-3-one] | 0.008 |
| CCc1c(F)ccc2cc(O)cc(-c3ncc4c(N5CCC[C@@H](CO)C5)nc(OC[C@@]56CCCN5C[C@H](F)C6)nc4c3F)c12 [Example 128, 5-Ethyl-6-fluoro-4-(8-fluoro-2-(((2R,7aS)-2-fluorotetrahydro-1H-pyrrolizin-7a(5H)-yl)methoxy)-4-((R)-3-(hydroxymethyl)piperidin-1-yl)pyrido[4,3-d]pyrimidin-7-yl)naphthalen-2-ol] | 0.293 |

More lines, now with the values ahead:

| IC50 [µM] | Structure (SMILES) |
| --- | --- |
| 0.259 | CCc1c(F)ccc2cc(O)cc(-c3ncc4c(N5CCC=CC(=O)C5)nc(OC[C@@]56CCCN5C[C@H](F)C6)nc4c3F)c12 [Example 134, 1-(7-(8-Ethyl-7-fluoro-3-hydroxynaphthalen-1-yl)-8-fluoro-2-(((2R,7aS)-2-fluorotetrahydro-1H-pyrrolizin-7a(5H)-yl)methoxy)pyrido[4,3-d]pyrimidin-4-yl)-1,2,6,7-tetrahydro-3H-azepin-3-one] |
| 0.172 | CCc1c(F)ccc2cc(O)cc(-c3ncc4c(N5CCCC(O)(C(F)(F)F)C5)nc(OC[C@@]56CCCN5C[C@H](F)C6)nc4c3F)c12 (stereo partly drawn) [Example 156, 1-(7-(8-Ethyl-7-fluoro-3-hydroxy-naphthalen-1-yl)-8-fluoro-2-(((2R,7aS)-2-fluorotetrahydro-1H-pyrrolizin-7a(5H)-yl)methoxy)pyrido[4,3-d]pyrimidin-4-yl)-3-(trifluoromethyl) piperidin-3-ol] |
| 1.24 | CCc1c(F)ccc2cc(O)cc(-c3ncc4c(N5CCCC(O)(C6CC6)C5)nc(OC[C@@]56CCCN5C[C@H](F)C6)nc4c3F)c12 (stereo partly drawn) [Example 157, 3-Cyclopropyl-1-(7-(8-ethyl-7-fluoro-3-hydroxy-naphthalen-1-yl)-8-fluoro-2-(((2R,7aS)-2-fluorotetrahydro-1H-pyrrolizin-7a(5H)-yl)methoxy)pyrido[4,3-d]pyrimidin-4-yl)piperidin-3-ol] |
| 1.16 | NS(=O)(=O)[C@@H]1CCCN(c2nc(OC[C@@]34CCCN3C[C@H](F)C4)nc3c(F)c(-c4cc(O)cc5ccc(F)c(F)c45)ncc23)C1 [Example 165, (R)-1-(7-(7,8-Difluoro-3-hydroxynaphthalen-1-yl)-8-fluoro-2-(((2R,7aS)-2-fluorotetrahydro-1H-pyrrolizin-7a(5H)-yl)methoxy)pyrido[4,3-d]pyrimidin-4-yl)piperidine-3-sulfonamide] |
| 0.034 | CCc1c(F)ccc2cc(O)cc(-c3ncc4c(N5CCC[C@@](C)(O)C5)nc(OC[C@@]56CCCN5C[C@H](F)C6)nc4c3Cl)c12 [Example 168, (R)-1-(8-Chloro-7-(8-ethyl-7-fluoro-3-hydroxynaphthalen-1-yl)-2-(((2R,7aS)-2-fluorotetrahydro-1H-pyrrolizin-7a(5H)-yl)methoxy)pyrido[4,3-d]pyrimidin-4-yl)-3-methylpiperidin-3-ol] |
| 0.04 | CCc1c(F)ccc2cc(O)cc(-c3ncc4c(N5CCC[C@@](C)(O)C5)nc(OC[C@@]56CCCN5C[C@H](F)C6)nc4c3C)c12 [Example 169, (R)-1-(7-(8-Ethyl-7-fluoro-3-hydroxynaphthalen-1-yl)-2-(((2R,7aS)-2-fluorotetrahydro-1H-pyrrolizin-7a(5H)-yl)methoxy)-8-methylpyrido[4,3-d]pyrimidin-4-yl)-3-methylpiperidin-3-ol] |
| 0.018 | CCc1c(F)ccc2cc(O)cc(-c3cc4nc(OC[C@@]56CCCN5C[C@H](F)C6)nc(N5CCC[C@@](C)(O)C5)c4cn3)c12 [Example 170, (R)-1-(7-(8-Ethyl-7-fluoro-3-hydroxynaphthalen-1-yl)-2-(((2R,7aS)-2-fluorotetrahydro-1H-pyrrolizin-7a(5H)-yl)methoxy)pyrido[4,3-d]pyrimidin-4-yl)-3-methyl-piperidin-3-ol] |
| 0.012 | CCc1c(F)ccc2cc(O)cc(-c3ncc4c(N5CCC[C@@](C)(O)C5)nc(OCC5(CN(C)C)CC5)nc4c3F)c12 [Example 180, (R)-1-(2-((1-((Dimethylamino)methyl)cyclopropyl)methoxy)-7-(8-ethyl-7-fluoro-3-hydroxynaphthalen-1-yl)-8-fluoropyrido[4,3-d]pyrimidin-4-yl)-3-methylpiperidin-3-ol] |

same assay, conditions: Homo sapiens, ASPC1, read-out: 2 h p-ERK (AsPC-1 cells), IC50; AsPC-1 cells, 2 h compound treatment

| Structure (SMILES) | IC50 [µM] |
| --- | --- |
| [2H]C([2H])([2H])[C@@]1(O)CCCN(c2nc(OC[C@@]34CCCN3C[C@H](F)C4)nc3c(F)c(-c4cc(O)cc5ccc(F)c(CC)c45)ncc23)C1 [Example 176, (R)-1-(7-(8-Ethyl-7-fluoro-3-hydroxynaphthalen-1-yl)-8-fluoro-2-(((2R,7aS)-2-fluorotetrahydro-1H-pyrrolizin-7a(5H)-yl)methoxy)pyrido[4,3-d]pyrimidin-4-yl)-3-(methyl-d3)piperidin-3-ol] | 0.005 |
| [2H]C([2H])([2H])[C@]1(O)CCCN(c2nc(OC[C@@]34CCCN3C[C@H](F)C4)nc3c(F)c(-c4cc(O)cc5ccc(F)c(CC)c45)ncc23)C1 [Example 177, (S)-1-(7-(8-Ethyl-7-fluoro-3-hydroxynaphthalen-1-yl)-8-fluoro-2-(((2R,7aS)-2-fluorotetrahydro-1H-pyrrolizin-7a(5H)-yl)methoxy)pyrido[4,3-d]pyrimidin-4-yl)-3-(methyl-d3)piperidin-3-ol] | 0.109 |
| CCc1c(F)ccc2cc(O)cc(-c3ncc4c(N5CCC[C@@](C)(O)C5)nc(OC[C@]56CCCN5C[C@@H](F)C6)nc4c3F)c12 [Example 178, (R)-1-(7-(8-Ethyl-7-fluoro-3-hydroxynaphthalen-1-yl)-8-fluoro-2-(((2S,7aR)-2-fluorotetrahydro-1H-pyrrolizin-7a(5H)-yl)methoxy)pyrido[4,3-d]pyrimidin-4-yl)-3-methylpiperidin-3-ol bis(2,2,2-trifluoroacetate)] | 0.008 |
